Test results taken from ChEMBL document CHEMBL4177730, “Rational modification of semaxanib and sunitinib for developing a tumor growth inhibitor targeting ATP binding site of tyrosine kinase” (2018).
Calls of active or inactive are those of the source.

Experiments:
Format in all cases: functional, cell-based
CCRF-CEM = assay: Growth inhibition of human CCRF-CEM cells at 10 uM after 48 hrs by sulforhodamine B assay
UACC-62 = assay: Growth inhibition of human UACC62 cells at 10 uM after 48 hrs by sulforhodamine B assay
SF-268 = assay: Growth inhibition of human SF268 cells at 10 uM after 48 hrs by sulforhodamine B assay
RXF 393 = assay: Growth inhibition of human RXF393 cells at 10 uM after 48 hrs by sulforhodamine B assay
OVCAR-8 = assay: Growth inhibition of human OVCAR8 cells at 10 uM after 48 hrs by sulforhodamine B assay
SNB-19 = assay: Growth inhibition of human SNB19 cells at 10 uM after 48 hrs by sulforhodamine B assay
MDA-MB-468 = assay: Growth inhibition of human MDA-MB-468 cells at 10 uM after 48 hrs by sulforhodamine B assay
NCI-H460 = assay: Growth inhibition of human NCI-H460 cells at 10 uM after 48 hrs by sulforhodamine B assay
HOP-62 = assay: Growth inhibition of human HOP62 cells at 10 uM after 48 hrs by sulforhodamine B assay
SN12C = assay: Growth inhibition of human SN12C cells at 10 uM after 48 hrs by sulforhodamine B assay
HCT-116 = assay: Growth inhibition of human HCT116 cells at 10 uM after 48 hrs by sulforhodamine B assay
MCF7 = assay: Growth inhibition of human MCF7 cells at 10 uM after 48 hrs by sulforhodamine B assay
COLO 205 = assay: Growth inhibition of human COLO205 cells at 10 uM after 48 hrs by sulforhodamine B assay
M14 = assay: Growth inhibition of human M14 cells at 10 uM after 48 hrs by sulforhodamine B assay
SK-MEL-28 = assay: Growth inhibition of human SK-MEL-28 cells at 10 uM after 48 hrs by sulforhodamine B assay
A498 = assay: Growth inhibition of human A498 cells at 10 uM after 48 hrs by sulforhodamine B assay
HCC 2998 = assay: Growth inhibition of human HCC2998 cells at 10 uM after 48 hrs by sulforhodamine B assay
HOP-92 = assay: Growth inhibition of human HOP92 cells at 10 uM after 48 hrs by sulforhodamine B assay
Malme-3M = assay: Growth inhibition of human MALME-3M cells at 10 uM after 48 hrs by sulforhodamine B assay
MDA-MB-435 = assay: Growth inhibition of human MDA-MB-435 cells at 10 uM after 48 hrs by sulforhodamine B assay
LOX IMVI = assay: Growth inhibition of human LOXIMVI cells at 10 uM after 48 hrs by sulforhodamine B assay
NCI-H226 = assay: Growth inhibition of human NCI-H226 cells at 10 uM after 48 hrs by sulforhodamine B assay
NCI/ADR-RES = assay: Growth inhibition of human NCI-ADR-RES cells at 10 uM after 48 hrs by sulforhodamine B assay
HL-60(TB) = assay: Growth inhibition of human HL-60(TB) cells at 10 uM after 48 hrs by sulforhodamine B assay
UO-31 = assay: Growth inhibition of human UO31 cells at 10 uM after 48 hrs by sulforhodamine B assay
MOLT-4 = assay: Growth inhibition of human MOLT4 cells at 10 uM after 48 hrs by sulforhodamine B assay
SNB-75 = assay: Growth inhibition of human SNB75 cells at 10 uM after 48 hrs by sulforhodamine B assay
SF-295 = assay: Growth inhibition of human SF295 cells at 10 uM after 48 hrs by sulforhodamine B assay
CAKI-1 = assay: Growth inhibition of human CAKI-1 cells at 10 uM after 48 hrs by sulforhodamine B assay
BT-549 = assay: Growth inhibition of human BT549 cells at 10 uM after 48 hrs by sulforhodamine B assay
MDA-MB-231 = assay: Growth inhibition of human MDA-MB-231 cells at 10 uM after 48 hrs by sulforhodamine B assay
HT-29 = assay: Growth inhibition of human HT-29 cells at 10 uM after 48 hrs by sulforhodamine B assay
OVCAR-5 = assay: Growth inhibition of human OVCAR5 cells at 10 uM after 48 hrs by sulforhodamine B assay
NCI-H23 = assay: Growth inhibition of human NCI-H23 cells at 10 uM after 48 hrs by sulforhodamine B assay
786-0 = assay: Growth inhibition of human 786-0 cells at 10 uM after 48 hrs by sulforhodamine B assay
SF-539 = assay: Growth inhibition of human SF539 cells at 10 uM after 48 hrs by sulforhodamine B assay
SK-OV-3 = assay: Growth inhibition of human SKOV3 cells at 10 uM after 48 hrs by sulforhodamine B assay
ACHN = assay: Growth inhibition of human ACHN cells at 10 uM after 48 hrs by sulforhodamine B assay
NCI-H322M = assay: Growth inhibition of human NCI-H322M cells at 10 uM after 48 hrs by sulforhodamine B assay
T47D = assay: Growth inhibition of human T47D cells at 10 uM after 48 hrs by sulforhodamine B assay
KM12 = assay: Growth inhibition of human KM12 cells at 10 uM after 48 hrs by sulforhodamine B assay
A549 = assay: Growth inhibition of human A549/ATCC cells at 10 uM after 48 hrs by sulforhodamine B assay
SW-620 = assay: Growth inhibition of human SW620 cells at 10 uM after 48 hrs by sulforhodamine B assay
K562 = assay: Growth inhibition of human K562 cells at 10 uM after 48 hrs by sulforhodamine B assay
IGROV-1 = assay: Growth inhibition of human IGROV1 cells at 10 uM after 48 hrs by sulforhodamine B assay
TK-10 = assay: Growth inhibition of human TK10 cells at 10 uM after 48 hrs by sulforhodamine B assay
OVCAR-4 = assay: Growth inhibition of human OVCAR4 cells at 10 uM after 48 hrs by sulforhodamine B assay
U-251 = assay: Growth inhibition of human U251 cells at 10 uM after 48 hrs by sulforhodamine B assay
SK-MEL-2 = assay: Growth inhibition of human SK-MEL-2 cells at 10 uM after 48 hrs by sulforhodamine B assay
HCT-15 = assay: Growth inhibition of human HCT15 cells at 10 uM after 48 hrs by sulforhodamine B assay
RPMI-8226 = assay: Growth inhibition of human RPMI8226 cells at 10 uM after 48 hrs by sulforhodamine B assay
OVCAR-3 = assay: Growth inhibition of human OVCAR3 cells at 10 uM after 48 hrs by sulforhodamine B assay
Hs-578T = assay: Growth inhibition of human Hs 578T cells at 10 uM after 48 hrs by sulforhodamine B assay
SK-MEL-5 = assay: Growth inhibition of human SK-MEL-5 cells at 10 uM after 48 hrs by sulforhodamine B assay
NCI-H522 = assay: Growth inhibition of human NCI-H522 cells at 10 uM after 48 hrs by sulforhodamine B assay
SR = assay: Growth inhibition of human SR cells at 10 uM after 48 hrs by sulforhodamine B assay
DU-145 = assay: Growth inhibition of human DU145 cells at 10 uM after 48 hrs by sulforhodamine B assay
EKVX = assay: Growth inhibition of human EKVX cells at 10 uM after 48 hrs by sulforhodamine B assay
PC-3 = assay: Growth inhibition of human PC3 cells at 10 uM after 48 hrs by sulforhodamine B assay

Measured: growth inhibition (GI)

O=C1/C(=C\c2cccn2C(=O)c2ccc(Cl)cc2)c2ccccc2N1c1c(Cl)cccc1Cl
inactive: all assays above
